{"source": "patent US20240368664A1", "about": "“LIVE YEAST BIOSENSORS AND METHODS OF USE THEREOF” (priority 2021, published 2024)", "key": {"[1]": {"test_system": "mutant SsSte2", "format": "cell-based, Scheffersomyces stipites"}, "[2]": {"test_system": "SsSte2 mutants", "format": "cell-based, Scheffersomyces stipites"}}, "note": "No end group written: not given here.", "data": [{"sequence": "KHWPQIAQFAPS [nucleocapsid epitope]", "values": [{"measurement": "EC50", "setting": "[1]", "result": "~10", "unit": "µM"}, {"measurement": "biosensor signal compared to signal in the presence of water", "setting": "[2]", "result": "over twice as strong"}]}]}
